Columns and labels:
[1] = tested on: Native lipid membranes from rat brain; assay: Lipid peroxidation (malondialdehyde/TBARS) in native rat brain membranes; assay type: biochemical
Description: Native biological membranes from adult rat brain were prepared by differential centrifugation as described (Moosmann and Behl, Proc Nati Acad Sci USA 96:8867-8872, 1999). Samples containing 0.5 mg/ml total protein (as per bicinchoninic acid assay from Pierce, Rockford, Ill., USA) were solubilized by brief sonication in PBS (phosphate-buffered saline) and administered with the indicated concentrations of n-dodecyl thiol (12-SH; from Sigma-Aldrich, St. Louis, Mo., USA) dissolved in ethanol (final concentration: 0.1%). Subsequently, 10 μM Fe^2+/200 μM ascorbate were added as radical-initiating mix; controls received vehicle (water). After the indicated time, the reaction was stopped by adding 2.5 volumes of 5% trichloroacetic acid in 1 M acetic acid, followed by centrifugation (10,000 g for 10 min). Subsequently, thiobarbituric acid-reactive substances (TBARS) as marker of lipid peroxidation were quantified fluorimetrically as detailed before (Hajieva et al., J Neurochem 110:118-132, 2009).

Drosophila melanogaster = assay: Ultrastructural effects in fruit flies in vivo (electron microscopy); details: 1 mM in the feed, electron micrographs
Description: Male Drosophila melanogaster (strain Oregon-R) were maintained at 25° C. in plastic vials covered with air-permeable lids and received standard food (50 g/L refined household sugar, 50 g/L baker's yeast, and 20 g/L agar powder). The medium was boiled under stirring, adding the following supplements at approximately 70° C.: 3 g/L methylparabene (dissolved in ethanol, final concentration: 0.15%), 3 mL/L propionic acid and the appropriate amount of n-dodecyl thiol (12-SH) dissolved in ethanol (final concentration: 0.1%). Synchronized male flies were transferred into new vials and scored for survival every other day. Treatment started on day 2 of adulthood. Electron microscopy. Flies harvested after 50 days of treatment were cryofixed by plunge freezing, cut into head, thorax and abdomen before chemical fixation for 90 min with 3% glutaraldehyde and 3% formaldehyde in PBS. The tissues were washed, fixed with 2% OsO4, washed again, dehydrated with rising concentrations of ethanol, transitionally stabilized with propylene oxide and embedded into epoxy resin essentially as described (Bozzola and Russel, Electron Microscopy: Jones and Bartlett Publishers, Inc., Sudbury, M A, 1999). The polymerized blocks were mounted, trimmed, and sectioned in an ultramicrotome before transfer onto electron microscopy grids. Images were acquired under standard conditions in a Tecnai Transmission Electron Microscope (FEI Company, Hillsboro, Oreg., USA).

C. elegans [2] = assay: 8-Isoprostane in homogenates of treated nematodes; assay type: in vivo, Caenorhabditis elegans; details: 0.1 mM or 0.5 mM, FIG. 4 (b)
Description: 8-Isoprostanes. Synchronized, 4-day-old adult worms distributed in cell culture flasks were administered with the indicated concentration of n-dodecyl thiol (12-SH) dissolved in ethanol (final concentration: 1%) and cultivated for 6 h or 48 has indicated. The worms were collected by centrifugation at 1200 g, washed twice with S-Basal medium, and once with DMEM medium containing 100 μM butylated hydroxytoluene (BHT). The worms were then homogenized in DMEM/BHT by sonication (3×20 s at 30 kHz on ice). Equal amounts of protein of the resulting homogenate (as per bicinchoninic acid assay from Pierce, Rockford, Ill., USA) were probed for the presence of 8-isoprostane by a commercial enzyme immunoassay (Cayman Chemicals, Ann Arbor, Mich., USA) following the manufacturer's instructions.

C. elegans [3] = assay: Toxicity (survival) in nematodes in vivo; parameters: species or system Caenorhabditis elegans; details: 0.5 mM in minimum diet with varying amounts of coliform bacteria, oral, FIG. 4 (a)
Description: Caenorhabditis elegans N2 Bristol strain animals were expanded and cultivated at 20° C. on nematode growth medium (NGM) plates in the presence of Escherichia coli strain HB101 as food source following standard protocols (Mocko et al., Neurobiol Dis 40:120-129, 2010). For the toxicity experiments, synchronized adult worms aged 2 days were maintained in liquid culture medium (S-Basal medium supplemented with 5 mg/L cholesterol, 100 mg/L streptomycin, 100 mg/L fluorodeoxyuridine (FUDR)) to which varying amounts of Escherichia coli were added (measured as optical density (OD) at 600 nm wavelength) as described (Mair et al., PLoS One 4:e4535, 2009). Worms distributed in 48-well plates were administered with 500 μM n-dodecyl thiol (12-SH) dissolved in ethanol (final concentration: 1%) and analyzed, after the indicated time, for survival by visual inspection and mechanical stimulation (nose-touch assay) as detailed (Mocko et al., Neurobiol Dis 40:120-129, 2010).

[4] = tested on: Primary human fibroblasts; assay: 8-Isoprostane release from diploid human fibroblasts; assay type: cell-based; details: 100 μM, medium with 10% fetal calf serum, time course, FIG. 3C (a)
Description: (§1) (FIG. 3A) Normal human diploid fibroblasts were cultivated under standard conditions stimulating cell division, i.e. with 10% serum in the medium. Specifically, the cells were grown in high-glucose DMEM (Dulbecco's Modified Eagle's Medium) supplemented with 10% heat-inactivated FCS (fetal calf serum), 1× non-essential amino acid (NEAA) supplement, 1 mM pyruvate, 100 mg/L streptomycin and 100 U/mL penicillin. For cultivation, the cells were maintained at 37° C. in a humidified atmosphere containing 5% CO2. The cells were generally passaged on reaching approximately 90% confluence and were seeded, after counting of the PDLs (population doublings), in new dishes at a density of 10^6 cells per dish in 100 mm dishes, or at a density of 10^4 cells per well in 96-well plates. Cells were used for experiments at PDL 25-30. All cell culture reagents were from Invitrogen, Carlsbad, Calif., USA.
(FIG. 3C) 8-Isoprostanes. Cells cultivated in 96-well plates for 24 h were administered with 100 μM n-dodecyl thiol (12-SH) for the indicated time before removing the cell culture supernatant for 8-isoprostane analysis. 8-Isoprostane analysis was achieved by a commercial enzyme immunoassay (Cayman Chemicals, Ann Arbor, Mich., USA), which was conducted as detailed in the manufacturers instructions.

[5] = tested on: Primary human fibroblasts; assay: Protein polyubiquitination in diploid human fibroblasts (Western blot); assay type: cell-based; details: 500 μM, medium with 10% fetal calf serum, time course, FIG. 3C (b)
Description: as §1
Protein polyubiquitination. Cells cultivated in 100 mm dishes for 24 h were administered with 500 μM n-dodecyl thiol (12-SH) for the indicated time before harvesting of the cells in lysis buffer (50 mM Tris-HCl, pH 7.4, 10% sucrose, 1 mM EDTA, 1 mM EGTA, 1 mM Na3VO4, 1 mM NaF, 1× protease inhibitor cocktail from Sigma-Aldrich, St. Louis, Mo., USA) followed by brief sonication and denaturation at 95° C. for 2 min. […] Densitometric quantification was performed using automated image analysis software.

HT22 cells = assay: Cytotoxic activity in cultivated HT22 cells (MTT), normoxic and hypoxic; assay type: cell-based, mouse; details: 1 day or 3 days, 20% O2 vs 1% O2, FIG. 2B
Description: (FIG. 2A) HT22 are a widely used, immortalized neuronal cell line that has been generated by transforming mouse neuronal tissue with the oncogenic SV40 T-antigen (Morimoto and Koshland, Neuron 5:875-880, 1990). HT22 cells were cultivated in high-glucose DMEM (Dulbecco's Modified Eagle's Medium) supplemented with 10% heat-inactivated FCS (fetal calf serum), 1 mM pyruvate, 100 mg/L streptomycin and 100 U/mL penicillin. For routine culture, cells were grown in 100 mm dishes at 37° C. in a humidified atmosphere containing 5% CO2. They were passaged three times per week on reaching approximately 90% confluence and splitted 1:10. All cell culture reagents were from Invitrogen, Carlsbad, Calif., USA.
For cell survival experiments, HT22 cells were seeded into 96-well plates at a density of ˜5000 cells per well in 0.1 mL medium. After 24 h cultivation, the cells were administered with the indicated concentrations of the tested compounds (n-octyl thiol (8-SH) or n-dodecyl thiol (12-SH)) dissolved in ethanol (final concentration: 1%). After 1 day or 3 days of incubation as indicated, cell survival was analyzed by colorimetric MTT reduction tests (MTT is 3-(4,5-dimethylthiazol-2-yl-)-2,5 diphenyltetrazolium bromide) which were performed exactly as described (Hajieva et al., J Neurochem 110:118-132, 2009). […]

CCCCCCCCCCCCS [n-dodecylthiol]
extent of lipid peroxidation (as malondialdehyde) ([1]; absence of any radical initiation ("dead membranes"), FIG. 1 (a)): absence of any effect
extent of lipid peroxidation (as malondialdehyde) ([1]; low level of free radical initiator (iron/ascorbate) added, FIG. 1 (b)): massively amplified
myofibrillar structure (Drosophila melanogaster; FIG. 5A): intact
ultrastructural effect on muscle mitochondria (Drosophila melanogaster; FIG. 5A): intramitochondrial, spiral multilamellar lesions
ultrastructural lesions in the nervous system (a, b) and photoreceptor cells (c) (Drosophila melanogaster; FIG. 5B): spiral multilamellar lesions of mitochondrial origin
other damage phenotype, nervous system (b) (Drosophila melanogaster; FIG. 5B (b)): vacuolization and electron-dense aggregation
other damage phenotype, photoreceptor cells (c) (Drosophila melanogaster; FIG. 5B (c)): bright lipofuscin accumulation
concentration of lipid peroxidation marker 8-isoprostane in worm homogenates (C. elegans [2]): increased to a constant maximum after only 6 h
worms killed / toxicity in vivo (C. elegans [3]): led to death after a few days
concentration of released lipid peroxidation marker 8-isoprostane [4]: increased significantly within a few hours
amount of polyubiquitinated proteins in the cell (marker of protein damage) [5]: increased significantly within a few hours
cytotoxic effectiveness under hypoxic versus normal oxygen conditions (HT22 cells): not compromised by hypoxic conditions
